Source: PubChem BioAssay (NCI)
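Test compounds were applied to cells in 96-well plates for 48 hours at 5 doses. Definition used: TGI = concentration required for complete inhibition of growth.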

Assays:
Assay in all cases: inhibition of tumour cell growth, NCI panel, 48 h
[1] = system: OVCAR-5 ovarian
[2] = system: CCRF-CEM leukemia
[3] = system: HCC-2998 colon
[4] = system: HL-60(TB) leukemia
[5] = system: NCI-H226 lung
[6] = system: EKVX NSCLC
[7] = system: DMS 273 small cell lung
[8] = system: OVCAR-3 ovarian
[9] = system: HOP-18 NSCLC
[10] = system: DLD-1 colon
[11] = system: A549 NSCLC
[12] = system: IGROV1 ovarian
[13] = system: SR leukemia
[14] = system: NCI-H460 lung
[15] = system: SF-268 CNS
[16] = system: A498 renal
[17] = system: SNB-78 CNS
[18] = system: UO-31 renal
[19] = system: NCI-H522 lung
[20] = system: 786-0 renal
[21] = system: SN12C renal
[22] = system: LOX IMVI melanoma
[23] = system: XF 498 CNS
[24] = system: RPMI-8226 leukemia
[25] = system: HOP-92 NSCLC
[26] = system: DMS 114 small cell lung
[27] = system: MOLT-4 leukemia
[28] = system: K-562 leukemia
[29] = system: SF-539 CNS
[30] = system: MALME-3M melanoma
[31] = system: SK-OV-3 ovarian
[32] = system: KM12 colon
[33] = system: SK-MEL-5 melanoma
[34] = system: UACC-62 melanoma
[35] = system: CAKI-1 renal
[36] = system: SK-MEL-2 melanoma
[37] = system: SK-MEL-28 melanoma
[38] = system: ACHN renal
[39] = system: TK-10 renal
[40] = system: U251 CNS
[41] = system: NCI-H23 lung
[42] = system: M14 melanoma
[43] = system: KM20L2 colon
[44] = system: M19-MEL melanoma
[45] = system: RXF 393 renal
[46] = system: SF-295 CNS
[47] = system: SNB-75 CNS
[48] = system: HCT-116 colon
[49] = system: UACC-257 melanoma
[50] = system: HT29 colon
[51] = system: HCT-15 colon
[52] = system: SW-620 colon
[53] = system: OVCAR-8 ovarian
[54] = system: COLO 205 colon
[55] = system: LXFL 529 NSCLC
[56] = system: HOP-62 NSCLC
[57] = system: SNB-19 CNS
[58] = system: OVCAR-4 ovarian
[59] = system: RXF-631 renal

SMILES: CCOC/N=C(/N)NC#N
- TGI [1]: > 100 µM
- TGI [2]: > 100 µM
- TGI [3]: > 100 µM
- TGI [4]: > 100 µM
- TGI [5]: > 100 µM
- TGI [6]: > 100 µM
- TGI [7]: > 100 µM
- TGI [8]: > 100 µM
- TGI [9]: > 100 µM
- TGI [10]: > 100 µM
- TGI [11]: > 100 µM
- TGI [12]: > 100 µM
- TGI [13]: > 100 µM
- TGI [14]: > 100 µM
- TGI [15]: > 100 µM
- TGI [16]: > 100 µM
- TGI [17]: > 100 µM
- TGI [18]: > 100 µM
- TGI [19]: > 100 µM
- TGI [20]: 56.2 µM
- TGI [21]: > 100 µM
- TGI [22]: 27.1 µM
- TGI [23]: > 100 µM
- TGI [24]: > 100 µM
- TGI [25]: > 100 µM
- TGI [26]: > 100 µM
- TGI [27]: > 100 µM
- TGI [28]: > 100 µM
- TGI [29]: > 100 µM
- TGI [30]: > 100 µM
- TGI [31]: > 100 µM
- TGI [32]: > 100 µM
- TGI [33]: > 100 µM
- TGI [34]: > 100 µM
- TGI [35]: > 100 µM
- TGI [36]: > 100 µM
- TGI [37]: > 100 µM
- TGI [38]: > 100 µM
- TGI [39]: > 100 µM
- TGI [40]: > 100 µM
- TGI [41]: > 100 µM
- TGI [42]: > 100 µM
- TGI [43]: > 100 µM
- TGI [44]: > 100 µM
- TGI [45]: > 100 µM
- TGI [46]: > 100 µM
- TGI [47]: > 100 µM
- TGI [48]: > 100 µM
- TGI [49]: > 100 µM
- TGI [50]: > 100 µM
- TGI [51]: 45 µM
- TGI [52]: 35.3 µM
- TGI [53]: > 100 µM
- TGI [54]: > 100 µM
- TGI [55]: > 100 µM
- TGI [56]: > 100 µM
- TGI [57]: > 100 µM

SMILES: CC1=C(C(=O)Nc2ccccc2C)C(c2ccccc2)C(C(=O)Nc2ccccc2C)=C(C)N1
- TGI [1]: > 100 µM
- TGI [2]: 73.9 µM
- TGI [3]: > 100 µM
- TGI [4]: 43.3 µM
- TGI [5]: > 100 µM
- TGI [6]: > 100 µM
- TGI [7]: > 100 µM
- TGI [8]: > 100 µM
- TGI [9]: > 100 µM
- TGI [10]: > 100 µM
- TGI [11]: > 100 µM
- TGI [12]: > 100 µM
- TGI [13]: 42.5 µM
- TGI [14]: > 100 µM
- TGI [15]: > 100 µM
- TGI [16]: > 100 µM
- TGI [17]: 97.4 µM
- TGI [18]: > 100 µM
- TGI [19]: > 100 µM
- TGI [20]: > 100 µM
- TGI [21]: > 100 µM
- TGI [22]: 42.6 µM
- TGI [23]: 83.2 µM
- TGI [25]: 41.2 µM
- TGI [26]: > 100 µM
- TGI [58]: > 100 µM
- TGI [27]: 53 µM
- TGI [28]: > 100 µM
- TGI [29]: > 100 µM
- TGI [30]: > 100 µM
- TGI [31]: > 100 µM
- TGI [32]: > 100 µM
- TGI [33]: 90 µM
- TGI [34]: > 100 µM
- TGI [35]: > 100 µM
- TGI [36]: 93 µM
- TGI [37]: > 100 µM
- TGI [38]: > 100 µM
- TGI [39]: > 100 µM
- TGI [40]: > 100 µM
- TGI [41]: > 100 µM
- TGI [42]: > 100 µM
- TGI [43]: > 100 µM
- TGI [44]: > 100 µM
- TGI [45]: 71.6 µM
- TGI [46]: > 100 µM
- TGI [47]: > 100 µM
- TGI [48]: > 100 µM
- TGI [49]: > 100 µM
- TGI [50]: > 100 µM
- TGI [51]: > 100 µM
- TGI [52]: > 100 µM
- TGI [53]: > 100 µM
- TGI [54]: 74.2 µM
- TGI [55]: > 100 µM
- TGI [56]: > 100 µM
- TGI [57]: > 100 µM

SMILES: COc1ccc2[nH]c3c(c2c1)CCN(C)CC3
- TGI [1]: > 100 µM
- TGI [2]: > 100 µM
- TGI [3]: > 100 µM
- TGI [4]: > 100 µM
- TGI [6]: > 100 µM
- TGI [7]: > 100 µM
- TGI [8]: > 100 µM
- TGI [9]: > 100 µM
- TGI [10]: > 100 µM
- TGI [11]: > 100 µM
- TGI [59]: > 100 µM
- TGI [12]: > 100 µM
- TGI [14]: > 100 µM
- TGI [15]: > 100 µM
- TGI [16]: > 100 µM
- TGI [17]: > 100 µM
- TGI [20]: > 100 µM
- TGI [22]: > 100 µM
- TGI [23]: > 100 µM
- TGI [24]: > 100 µM
- TGI [25]: > 100 µM
- TGI [58]: > 100 µM
- TGI [27]: > 100 µM
- TGI [28]: > 100 µM
- TGI [29]: > 100 µM
- TGI [30]: > 100 µM
- TGI [31]: > 100 µM
- TGI [32]: > 100 µM
- TGI [33]: > 100 µM
- TGI [34]: > 100 µM
- TGI [35]: > 100 µM
- TGI [36]: > 100 µM
- TGI [37]: > 100 µM
- TGI [38]: > 100 µM
- TGI [39]: > 100 µM
- TGI [40]: > 100 µM
- TGI [41]: > 100 µM
- TGI [42]: > 100 µM
- TGI [43]: > 100 µM
- TGI [44]: > 100 µM
- TGI [46]: > 100 µM
- TGI [47]: > 100 µM
- TGI [48]: > 100 µM
- TGI [49]: > 100 µM
- TGI [50]: > 100 µM
- TGI [51]: > 100 µM
- TGI [52]: > 100 µM
- TGI [53]: > 100 µM
- TGI [54]: > 100 µM
- TGI [56]: > 100 µM
- TGI [57]: > 100 µM

SMILES: Cc1cc(C)nc(NS(=O)(=O)c2ccc(Nc3c4ccccc4nc4c(C(=O)Nc5ccc(S(=O)(=O)N=C(N)N)cc5)ccc(Cl)c34)cc2)n1
- TGI [1]: > 100 µM
- TGI [3]: 38.4 µM
- TGI [4]: 54 µM
- TGI [5]: 58.1 µM
- TGI [6]: > 100 µM
- TGI [7]: > 100 µM
- TGI [8]: 37.5 µM
- TGI [9]: > 100 µM
- TGI [10]: > 100 µM
- TGI [11]: > 100 µM
- TGI [13]: 65.4 µM
- TGI [14]: > 100 µM
- TGI [15]: 97.2 µM
- TGI [16]: > 100 µM
- TGI [17]: > 100 µM
- TGI [18]: 73.9 µM
- TGI [19]: 29.4 µM
- TGI [20]: > 100 µM
- TGI [21]: 80.9 µM
- TGI [22]: 34.7 µM
- TGI [23]: 56.7 µM
- TGI [24]: 80.1 µM
- TGI [26]: 41.8 µM
- TGI [58]: 75.4 µM
- TGI [27]: 64.8 µM
- TGI [28]: > 100 µM
- TGI [29]: 45.6 µM
- TGI [30]: > 100 µM
- TGI [31]: 51 µM
- TGI [32]: > 100 µM
- TGI [33]: > 100 µM
- TGI [34]: 36.9 µM
- TGI [35]: > 100 µM
- TGI [38]: > 100 µM
- TGI [39]: 95.5 µM
- TGI [40]: 34.6 µM
- TGI [41]: 43.7 µM
- TGI [42]: > 100 µM
- TGI [43]: > 100 µM
- TGI [44]: 55.4 µM
- TGI [45]: 38.6 µM
- TGI [46]: > 100 µM
- TGI [47]: > 100 µM
- TGI [48]: 51.5 µM
- TGI [49]: > 100 µM
- TGI [50]: > 100 µM
- TGI [53]: 33.4 µM
- TGI [54]: > 100 µM
- TGI [55]: 72.4 µM
- TGI [56]: 54.8 µM
- TGI [57]: 46.7 µM
